Assay results as given in patent US4515806A, “Furan derivatives and addition salts thereof pharmaceutical compositions and the therapeutical applications thereof” (priority 1982, dated 1985).
Where two headings read alike, the source gives them in different places.

Experiments:
gastric juices [1] = assay: Ligature of pylorus, intravenous treatment (Table B-1); assay type: in vivo, Male Wistar rats; conditions: for Volume of gastric juice, percentage decrease relative to control / pH of gastric juice, percentage increase relative to control / Total acidity (titration with 0,1N NaOH), percentage decrease relative to control: 10 mg/kg i.v., 3 h after ligature
Protocol: (§1) The method of […] et al. (J. Pharmac. Exp. […] Male Wistar rats, weighing from 250 to 300 grams were used. […] The rats were anesthetised with ethyl ether, a laparotomy was performed and the pylorus was ligatured. The abdominal incision was then sewn. Treatment was effected: (B-1) intravenously, through the femoral vein. (B-2) intraduodenally, prior to sewing the abdominal incision. Three hours after ligature of the pylorus, the volumen of gastric juices was measured, the pH was determined by a Beckman Century SS-1 pH-meter.

gastric juices [2] = assay: Ligature of pylorus, intraduodenal treatment (Table B-2); assay type: in vivo, Male Wistar rats
Protocol: as §1

Solubility (in words) = assay type: physicochemical
histamine H2 receptors = target: T1, histamine H2 receptors (Rattus norvegicus, UniProt P25102); conditions: for inhibition at 0.0434 µM / inhibition at 0.434 µM / inhibition at 4.34 µM / inhibition at 43.4 µM: rat, read-out: Antagonism (% reduction) of the histamine induced response in KCl contracted rat uterus; for EC50: read-out: effective concentration for producing a 50% antagonism of the histamine response (EC50)
T1 construct: the uterine horn was removed and suspended in a De Jalon solution in an organ bath; from tissue; host or cells: rat uterine horn (rats in estrus, stilbestrol-treated)
T1 sequence (P25102 whole entry): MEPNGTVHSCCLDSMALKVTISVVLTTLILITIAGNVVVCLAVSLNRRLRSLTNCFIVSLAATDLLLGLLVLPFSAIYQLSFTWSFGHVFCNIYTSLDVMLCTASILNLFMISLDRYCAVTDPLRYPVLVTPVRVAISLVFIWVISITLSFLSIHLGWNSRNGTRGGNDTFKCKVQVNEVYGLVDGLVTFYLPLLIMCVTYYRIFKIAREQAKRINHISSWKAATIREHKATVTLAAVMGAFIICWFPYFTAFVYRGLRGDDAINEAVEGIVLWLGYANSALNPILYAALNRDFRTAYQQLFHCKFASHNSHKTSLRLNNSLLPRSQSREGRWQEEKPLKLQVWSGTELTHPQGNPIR
Protocol: Rats in estrus were used and were administered 100 mcg of stilbestrol by intramuscular (i.m.) injection 30 hours before removing the uterus. On the day of the experiment, the uterine horn was removed and suspended in a De Jalon solution in an organ bath, held at 28° C. and aerated with a flow of 95% O2 and 5% CO2. Thereafter a sustained uterine contraction was induced by the addition of a KCl solution to provide a concentration in the organ bath of 4.2 mg/ml, namely, 10 times that of the De Jalon serum. The uterus was caused to relax with the addition of the amount of histamine required to obtain a good response.

in vivo = conditions: mouse, iv
rats = assay: Acute toxicity in rats
[3] = 1 mg/kg intraduodenal, lot of 4 rats
[4] = 3 mg/kg intraduodenal, 4 or 5 rats
[5] = 10 mg/kg intraduodenal, first lot (4 or 5 rats)
[6] = 10 mg/kg intraduodenal, lot of 8 rats
[7] = 10 mg/kg intraduodenal, second lot (4 or 5 rats)
[8] = 1 mg/kg intraduodenal, lot of 5 rats

SMILES | Volume of gastric juice, percentage decrease relative to control (gastric juices [1]; first lot (2 or 3 rats)) [%] | pH of gastric juice, percentage increase relative to control (gastric juices [1]; first lot (2 or 3 rats)) [%] | Total acidity (titration with 0,1N NaOH), percentage decrease relative to control (gastric juices [1]; lot of 5 rats) [%] | Volume of gastric juice, percentage decrease relative to control (gastric juices [1]; lot of 5 rats) [%] | Total acidity (titration with 0,1N NaOH), percentage decrease relative to control (gastric juices [1]; lot of 8 rats) [%] | Volume of gastric juice, percentage decrease relative to control (gastric juices [1]; lot of 8 rats) [%] | pH of gastric juice, percentage increase relative to control (gastric juices [1]; lot of 8 rats) [%] | Total acidity (titration with 0,1N NaOH), percentage decrease relative to control (gastric juices [2]; [3]) [%] | Volume of gastric juice, percentage decrease relative to control (gastric juices [2]; [3]) [%] | pH of gastric juice, percentage increase relative to control (gastric juices [2]; [3]) [%] | Total acidity (titration with 0,1N NaOH), percentage decrease relative to control (gastric juices [2]; [4]) [%] | Volume of gastric juice, percentage decrease relative to control (gastric juices [2]; [4]) [%] | pH of gastric juice, percentage increase relative to control (gastric juices [2]; [4]) [%] | Total acidity (titration with 0,1N NaOH), percentage decrease relative to control (gastric juices [2]; [5]) [%] | Volume of gastric juice, percentage decrease relative to control (gastric juices [2]; [5]) [%] | pH of gastric juice, percentage increase relative to control (gastric juices [2]; [5]) [%] | Total acidity (titration with 0,1N NaOH), percentage decrease relative to control (gastric juices [2]; [6]) [%] | Volume of gastric juice, percentage decrease relative to control (gastric juices [2]; [6]) [%] | pH of gastric juice, percentage increase relative to control (gastric juices [2]; [6]) [%] | solubility (Solubility (in words); methanol) | also measured
CN/C(=N/CCSCc1nc[nH]c1C)NC#N [Cimetidine, cimetidine] | 41.0 | 50.4 | 11.7 | 23.2 | 52.7 | 7.3 | 64.9 | 48 | 14 | 46 | 48 | 23 | 29 | 84 | 28 | 50 | 40 | 6.6 | 100 |  | Total acidity (titration with 0,1N NaOH), percentage decrease relative to control (gastric juices [2]; [7]): 82%; Volume of gastric juice, percentage decrease relative to control (gastric juices [2]; [7]): 51%; pH of gastric juice, percentage increase relative to control (gastric juices [2]; [7]): 178%; Total acidity (titration with 0,1N NaOH), percentage decrease relative to control (gastric juices [2]; 25 mg/kg intraduodenal, 5 rats): 51.5%; Volume of gastric juice, percentage decrease relative to control (gastric juices [2]; 25 mg/kg intraduodenal, 5 rats): 35.4%; pH of gastric juice, percentage increase relative to control (gastric juices [2]; 25 mg/kg intraduodenal, 5 rats): 110%
CN(C)Cc1ccc(CSCCNC(=C[N+](=O)[O-])NCCO)o1 [Example 1, (a), N-[2-[[(5-[(dimethylamino)methyl]-2-furanyl)methyl]thio]ethyl]-N'-(2-hydroxyethyl)-2-nitro-1,1-ethenediamine] |  |  |  |  |  |  |  |  |  |  |  |  |  |  |  |  |  |  |  | soluble | solubility (Solubility (in words); chloroform): soluble
CN(C)Cc1ccc(CSCCNC(=C[N+](=O)[O-])NCCO)o1.Cl [Example 1, (b), N-[2-[[(5-[(dimethylamino)methyl]-2-furanyl)methyl]thio]ethyl]-N'-(2-hydroxyethyl)-2-nitro-1,1-ethenediamine hydrochloride] |  |  |  |  |  |  |  |  |  |  |  |  |  |  |  |  |  |  |  | soluble | activity compared with ranitidine (histamine H2 receptors; rat uterus H2 receptors): more active than ranitidine; inhibition at 0.0434 µM (histamine H2 receptors): 0%; inhibition at 0.434 µM (histamine H2 receptors): 22.2%; inhibition at 4.34 µM (histamine H2 receptors): 47.3%; inhibition at 43.4 µM (histamine H2 receptors): 81.8%; EC50 (histamine H2 receptors): 5.5 µM; activity (reduction in volume, increase in pH of gastric juice) (gastric juices [1]; intravenous): very high; activity compared with cimetidine (gastric juices [1]; intravenous): more active than cimetidine; activity compared with ranitidine (gastric juices [1]; intravenous): rather higher; activity (reduction in volume, increase in pH of gastric juice) (gastric juices [2]; intraduodenal): very high; activity compared with cimetidine (gastric juices [2]; intraduodenal): more active than cimetidine; activity compared with ranitidine (gastric juices [2]; intraduodenal): practically the same activity; solubility (Solubility (in words); water): soluble; acute toxicity (mice): low; LD50 (in vivo): 200 mg/kg; acute toxicity (rats): low
O=[N+]([O-])C=C(NCCO)NCCO [Example 2, N,N'-bis(2-hydroxyethyl)-2-nitro-1,1-ethenediamine] |  |  |  |  |  |  |  |  |  |  |  |  |  |  |  |  |  |  |  | slightly soluble | solubility (Solubility (in words); ethanol): slightly soluble; solubility (Solubility (in words); water): soluble
CNC(=C[N+](=O)[O-])NCCSCc1ccc(CN(C)C)o1 [Ranitidine, ranitidine] | 68.1 | 200.8 | 81.8 | 61.4 | 72.7 | 21 | 104.2 | 38 | 46.2 | 17 | 47 | 5 | 46 | 66 | 30 | 95 | 50 | 12 | 97.4 |  | EC50 (histamine H2 receptors; rat uterus, KCl contracted): 8.25 µM; inhibition at 0.0434 µM (histamine H2 receptors): 0%; inhibition at 0.434 µM (histamine H2 receptors): 20%; inhibition at 4.34 µM (histamine H2 receptors): 42.2%; inhibition at 43.4 µM (histamine H2 receptors): 73.8%; pH of gastric juice, percentage increase relative to control (gastric juices [1]; lot of 5 rats): 88.5%; Total acidity (titration with 0,1N NaOH), percentage decrease relative to control (gastric juices [2]; [8]): 18%; Volume of gastric juice, percentage increase relative to control (gastric juices [2]; [8]): 6%; pH of gastric juice, percentage increase relative to control (gastric juices [2]; [8]): 60%; Total acidity (titration with 0,1N NaOH), percentage decrease relative to control (gastric juices [2]; [7]): 75%; Volume of gastric juice, percentage decrease relative to control (gastric juices [2]; [7]): 58%; pH of gastric juice, percentage increase relative to control (gastric juices [2]; [7]): 202%; Total acidity (titration with 0,1N NaOH), percentage decrease relative to control (gastric juices [2]; 25 mg/kg intraduodenal, 5 rats): 83%; Volume of gastric juice, percentage decrease relative to control (gastric juices [2]; 25 mg/kg intraduodenal, 5 rats): 55%; pH of gastric juice, percentage increase relative to control (gastric juices [2]; 25 mg/kg intraduodenal, 5 rats): 210%
NCCc1c[nH]cn1 [histamine] |  |  |  |  |  |  |  |  |  |  |  |  |  |  |  |  |  |  |  |  | inhibition at 54.3 µM (histamine H2 receptors; read-out: inhibition of the contraction caused by KCl): 74.5%
